Consider 26 compounds from patent US7223759B2, “Antibacterial 3,5-diaminopiperidine-substituted aromatic and heteroaromatic compounds” (Anadys Pharmaceuticals, Inc., priority 2003, dated 2007).

Usually MIC stands for the lowest concentration found to suppress growth.

The first experiment has as its system Escherichia coli (ATCC25922) or Staphylococcus aureus (ATCC25923). The experiment can be described thus: Antibacterial MIC, microdilution method in Mueller-Hinton medium. Particulars: Escherichia coli, 18 h, MIC in E. coli or S. aureus; two-fold serial dilutions 64 to 0.5 μg/ml in duplicate; 18 hours of incubation at 35° C.; read-out: Potency (MIC). The format is cell-based. The procedure:
The antibacterial activity of the Formula I compounds was evaluated against standard bacterial strains by determining the minimal inhibitory concentration (MIC) to block growth. Each drug was assayed by the microdilution method in Mueller-Hinton medium, as recommended by the National Committee for Clinical Laboratory Standards. Approved Standard M7-A5: Methods for Dilution Antimicrobial Susceptibility Tests for Bacteria That Grow Aerobically 5th Ed. (National Committee for Clinical Laboratory Standards, Wayne, Pa., 2000). The tested bacterial strains included Escherichia coli (American Type Collection ATCC25922), Staphylococcus aureus (ATCC25923), and Pseudomonas aeruginosa (ATCC27853). Two-fold serial dilutions of each compound ranging from 64 to 0.5 μg/ml were tested in duplicate. The MIC was determined as the lowest concentration of each compound that prevented bacterial growth after 18 hours of incubation at 35° C. […] The mass of each compound in the Table was confirmed by LC-MS.
For the compound `Cl.O=C(Nc1ccc(Nc2nc(NCCCn3ccnc3)nc(N3CCCCC3)n2)cc1O)c1ccc(Cl)cc1`, the MIC was less than 64 µg/mL.

For the compound `Cl.NC1C[C@H](N)CN(c2nc(Nc3ccc(Br)c4ccccc34)nc(N3C[C@H](N)C[C@H](N)C3)n2)C1` (stereo in doubt) [N-(4-bromo-naphthalen-1-yl)-4,6-Bis-((3R,5S)-3,5-diamino-piperidin-1-yl)-[1,3,5]triazine-2-amine], the minimal inhibitory concentration (MIC) is less than 64 µg/mL.

Turning to `Cl.NC1C[C@@H](N)CN(c2nc(Nc3ccc(O)cc3[N+](=O)[O-])nc(N3C[C@H](N)C[C@H](N)C3)n2)C1` (stereo in doubt) [N-(4-hydroxy-2-nitro-phenyl)-4,6-Bis-((3R,5S)-3,5-diamino-piperidin-1-yl)-[1,3,5]triazine-2-amine], the minimal inhibitory concentration (MIC) is greater than 64 µg/mL.

For `Cl.NC1C[C@@H](N)CN(c2nc(Nc3ccc(NC(=O)c4cc(Cl)ccc4O)cc3)nc(N3C[C@H](N)C[C@H](N)C3)n2)C1` (stereo in doubt) [N-[4-(5-chloro-2-hydroxy-benzoylamino)-phenyl]-4,6-Bis-((3R,5S)-3,5-diamino-piperidin-1-yl)-[1,3,5]triazine-2-amine], the minimum inhibitory concentration (MIC) was less than 16 µg/mL.

For `Cl.N[C@@H]1C[C@H](N)CN(c2nc(N3C[C@H](N)C[C@H](N)C3)nc(-n3cnc4ccccc43)n2)C1` [1-(4,6-Bis-((3R,5S)-3,5-diamino-piperidin-1-yl)-[1,3,5]triazin-2-yl)-1H-benzoimidazole], the minimal inhibitory concentration (MIC) was greater than 64 µg/mL.

For `NC1CCN(c2nc(N3C[C@H](N)C[C@H](N)C3)nc(N3C[C@H](N)C[C@H](N)C3)n2)CC1` [1-(4,6-Bis-((3R,5S)-3,5-diamino-piperidin-1-yl)-[1,3,5]triazin-2-yl)-piperidine-3-carboxylic aciddiethylamide], the MIC is greater than 64 µg/mL.

`Cl.O=C(Nc1ccc(Nc2nc(N3CCCCC3)nc(N3CCCCC3)n2)cc1)c1ccc2ccccc2c1O` [1-Hydroxy-naphthalene-2-carboxylic acid {4-[4-((3S,5R)-3,5-diamino-piperidin-12-yl)-6-((3R,5R)-3,5-dihydroxy-piperidin-1-yl)-[1,3,5]triazin-2-ylamino]-phenyl}-amide]: the MIC was less than 64 µg/mL.

Staying with this experiment, now noted: Escherichia coli, 18 h, read-out: Potency (MIC).
As for `N[C@@H]1C[C@H](N)CN(c2nc(Nc3ccc(NC(=O)c4ccc(Cl)cc4)c(O)c3)nc(NC3CCNCC3)n2)C1`, the MIC was less than 16 µg/mL.

Take `N[C@@H]1C[C@H](N)CN(c2cc(Nc3ccc(NC(=O)c4ccc5ccccc5c4O)cc3)cc(N3C[C@H](N)C[C@H](N)C3)n2)C1` [1-Hydroxy-naphthalene-2-carboxylic acid [4-(2,6-Bis-((3R,5S)-3,5-diamino-piperidin-1-yl)-pyridin-4-ylamino)-phenyl]-amide]: the MIC was less than 16 µg/mL.

For `N[C@@H]1C[C@H](N)CN(c2nc(N3C[C@H](N)C[C@H](N)C3)c(Cl)c(Nc3ccc(NC(=O)c4ccc5ccccc5c4O)cc3)c2Cl)C1` [1-Hydroxy-naphthalene-2-carboxylic acid [4-(3,5-dichloro-2,6-Bis-((3R,5S)-3,5-diamino-piperidin-1-yl)-pyridin-4-ylamino)-phenyl]-amide], the minimal inhibitory concentration (MIC) is less than 16 µg/mL.

In the case of `N[C@@H]1C[C@H](N)CN(c2cc(Nc3ccc(NC(=O)c4ccc5ccccc5c4O)cc3)nc(N3C[C@H](N)C[C@H](N)C3)c2)C1` [1-Hydroxy-naphthalene-2-carboxylic acid [4-(4,6-Bis-((3R,5S)-3,5-diamino-piperidin-1-yl)-pyridin-2-ylamino)-phenyl]-amide], the MIC is less than 16 µg/mL.

As for `NC[C@H]1[C@@H](O)CCN1c1nc(Nc2ccc(NC(=O)c3ccc4ccccc4c3O)cc2)nc(N2C[C@H](N)C[C@H](N)C2)n1` [1-Hydroxy-naphthalene-2-carboxylic acid {4-[4-((2S,3S)-2-aminomethyl-3-hydroxy-pyrrolidin-1-yl)-6-((3R,5S)-3,5-diamino-piperidin-1-yl)-[1,3,5]triazin-2-ylamino]-phenyl}-amide], the MIC is less than 16 µg/mL.

For the compound `NC[C@@H]1C[C@H](N)CN1c1nc(Nc2ccc(NC(=O)c3ccc4ccccc4c3O)cc2)nc(N2C[C@H](N)C[C@H](N)C2)n1` [1-Hydroxy-naphthalene-2-carboxylic acid {4-[4-((2S,4S)-4-amino-2-aminomethyl-pyrrolidin-1-yl)-6-((3R,5S)-3,5-diamino-piperidin-1-yl)-[1,3,5]triazine-2-ylamino]-phenyl}-amide], the minimal inhibitory concentration (MIC) is less than 16 µg/mL.

With `NC[C@@H]1CN(c2nc(Nc3ccc(NC(=O)c4ccc5ccccc5c4O)cc3)nc(N3C[C@H](N)C[C@H](N)C3)n2)CC[C@@H]1O` [1-Hydroxy-naphthalene-2-carboxylic acid {4-[4-((3R,4S)-3-aminomethyl-4-hydroxy-piperidin-1-yl)-6-((3R,5S)-3,5-diamino-piperidin-1-yl)-[1,3,5]triazin-2-ylamino]-phenyl}-amide], the minimal inhibitory concentration (MIC) is less than 16 µg/mL.

As for `NC[C@@H]1C[C@H](CN)CN(c2nc(Nc3ccc(NC(=O)c4ccc5ccccc5c4O)cc3)nc(N3C[C@H](N)C[C@H](N)C3)n2)C1` [1-Hydroxy-naphthalene-2-carboxylic acid {4-[4-((3R,5S)-3,5-bis-(aminomethyl)-piperidin-1-yl)-6-((3R,5S)-3,5-diamino-piperidin-1-yl)-[1,3,5]triazine-2-ylamino]-phenyl}-amide], the minimal inhibitory concentration (MIC) is less than 16 µg/mL.

`N[C@@H]1C[C@H](N)CN(c2nc(Nc3ccc(NC(=O)c4ccc5ccccc5c4O)cc3)nc(N3C[C@@H](N)[C@@H](N)C3)n2)C1` [1-Hydroxy-naphthalene-2-carboxylic acid {4-[4-((3R,5S)-3,5-diamino-piperidin-1-yl)-6-((3R,4S)-3,4-diamino-pyrrolidin-1-yl)-[1,3,5]triazin-2-ylamino]-phenyl}-amide]: the MIC was less than 16 µg/mL.

As to `COc1nc(Nc2ccc(NC(=O)c3ccc4ccccc4c3O)cc2)nc(N2C[C@H](N)C[C@H](N)C2)n1` [1-Hydroxy-naphthalene-2-carboxylic acid {4-[4-((3R,5S)-3,5-diamino-piperidin-1-yl)-6-methoxy-[1,3,5]triazin-2-ylamino]-phenyl}-amide], the minimal inhibitory concentration (MIC) is less than 16 µg/mL.

Consider `N[C@@H]1C[C@H](N)CN(c2nc(Nc3ccc(NC(=O)c4ccc5ccccc5c4O)cc3)nc(N3C[C@@H](O)[C@@H](O)C3)n2)C1` [1-Hydroxy-naphthalene-2-carboxylic acid {4-[4-((3S,5R)-3,5-diamino-piperidin-1-yl)-6-((3R,4S)-3,4-dihydroxy-pyrrolidin-1-yl)-[1,3,5]triazin-2-ylamino]-phenyl}-amide], for which the MIC was less than 64 µg/mL.

Take `NCCN(CCN)c1nc(Nc2ccc(NC(=O)c3ccc4ccccc4c3O)cc2)nc(N2C[C@H](N)C[C@H](N)C2)n1` [1-Hydroxy-naphthalene-2-carboxylic acid {4-[4-[bis-(2-amino-ethyl)-amino]-6-((3R,5S)-3,5-diamino-piperidin-1-yl)-[1,3,5]triazin-2-ylamino]-phenyl}-amide]: the MIC is less than 16 µg/mL.

For `N[C@@H]1C[C@H](N)CN(c2ccc(NC(=O)c3ccc4ccccc4c3O)cc2)C1` [1-Hydroxy-naphthalene-2-carboxylicacid [4-((3S,5R)-3,5-diamino-piperidin-1-yl)-phenyl]-amide], the MIC is greater than 64 µg/mL.

Regarding `N[C@@H]1C[C@H](N)CN(c2cc(Nc3ccc(NC(=O)c4ccc5ccccc5c4O)cc3)nc(N3C[C@H](N)C[C@H](N)C3)n2)C1` [1-Hydroxy-naphthalene-2-carboxylicacid {4-[2-((3R,5S)-3,5-diamino-piperidin-1-yl)-6-((3S,5R)-3,5-diamino-piperidin-1-yl)-pyrimidin-4-ylamino]-phenyl}-amide], the minimum inhibitory concentration (MIC) is less than 16 µg/mL.

As for `NCCNc1nc(Nc2ccc(NC(=O)c3ccc4ccccc4c3O)cc2)nc(N2C[C@H](N)C[C@H](N)C2)n1` [1-Hydroxy-naphthalene-2-carboxylicacid {4-[4-(2-amino-ethylamino)-6-((3R,5S)-3,5-diamino-piperidin-1-yl)-[1,3,5]triazin-2-ylamino]-phenyl}-amide], the MIC was less than 16 µg/mL.

Turning to `NC[C@@H]1C[C@@H](O)CN1c1nc(Nc2ccc(NC(=O)c3ccc4ccccc4c3O)cc2)nc(N2C[C@H](N)C[C@H](N)C2)n1` [1-Hydroxy-naphthalene-2-carboxylicacid {4-[4-((2S,4R)-2-aminomethyl-4-hydroxy-pyrrolidin-1-yl)-6-((3R,5S)-3,5-diamino-piperidin-1-yl)-[1,3,5]triazin-2-ylamino]-phenyl}-amide], the MIC was less than 64 µg/mL.

Consider `N[C@@H]1C[C@H](N)CN(c2nc(Nc3ccc(NC(=O)c4ccc5ccccc5c4O)cc3)nc(N3CCC[C@@H](O)C3)n2)C1` [1-Hydroxy-naphthalene-2-carboxylicacid {4-[4-((3S,5R)-3,5-diamino-piperidin-1-yl)-6-((R)-3-hydroxy-piperidin-1-yl)-[1,3,5]triazin-2-ylamino]-phenyl}-amide], for which the MIC was less than 64 µg/mL.

Still in this experiment, the particulars now being: MIC in E. coli or S. aureus; two-fold serial dilutions 64 to 0.5 μg/ml in duplicate; 18 hours of incubation at 35° C.
`Cc1ccc(S(=O)(=O)N(Cc2ccccc2)c2ccc(Nc3nc(N4C[C@H](N)C[C@H](N)C4)nc(N4CC[C@H](O)[C@@H]4CN)n3)c(O)c2)cc1`: the “Potency (MIC)” value is “+ (+ means MIC<64 μg/ml in E. coli or S. aureus)”.

“7-[4-((2S,4S)-4-Amino-2-aminomethyl-pyrrolidin-11-yl)-6-((3R,5S)-3,5-diamino-piperidin-1-yl)-[1,3,5]triazin-2-ylamino]-4-methyl-chromen-2-one”: the “Potency (MIC)” value was “− (− means MIC>64 μg/ml in E. coli or S. aureus)”.
